Reference: PubChem BioAssay (NCI)
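Interpolation was linear, between the two tested concentrations surrounding the appropriate level; five concentrations were tested over 48 hours in 96-well plates. GI50 = concentration required for 50% inhibition of growth. At the TGI there is no net growth.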

Columns and labels:
Assay in all cases: DTP human tumour cell line panel, 48 h
[1] = tested on: M14 melanoma
[2] = tested on: MALME-3M melanoma
[3] = tested on: MCF7 breast
[4] = tested on: NCI-H226 lung
[5] = tested on: RPMI-8226 leukemia
[6] = tested on: SF-268 CNS
[7] = tested on: SK-OV-3 ovarian
[8] = tested on: SR leukemia
[9] = tested on: U251 CNS
[10] = tested on: UACC-257 melanoma

Row | SMILES | TGI [1] [µM] | TGI [2] [µM] | TGI [3] [µM] | TGI [4] [µM] | TGI [5] [µM] | TGI [6] [µM] | TGI [7] [µM] | TGI [8] [µM] | TGI [9] [µM] | TGI [10] [µM] | GI50 [1] [µM] | GI50 [2] [µM] | GI50 [3] [µM] | GI50 [4] [µM] | GI50 [5] [µM] | GI50 [6] [µM] | GI50 [7] [µM] | GI50 [8] [µM] | GI50 [9] [µM] | GI50 [10] [µM]
1 | COc1cc(C(c2cc(OC)c(OC)c(OC)c2)N2C(=O)CCC2C(=O)O)cc(OC)c1OC (stereo not given) | > 100 | > 100 | > 100 | > 100 | > 100 | > 100 | > 100 | > 100 | > 100 | > 100 | – | – | – | – | – | – | – | – | – | –
2 | Nc1ccc(S(=O)(=O)c2ccc(N=[N+]([O-])c3ccc(S(=O)(=O)c4ccc(N)cc4)cc3)cc2)cc1 | > 100 | > 100 | > 100 | 92.2 | > 100 | > 45.9 | > 90.6 | > 100 | > 57.3 | > 100 | – | – | – | – | – | – | – | – | – | –
3 | O=C(Nc1ccc(Cl)cc1)c1cc(S(=O)(=O)NC2=NC(c3ccccc3)c3cc(Cl)ccc3N2)c(SSc2cc(Cl)c(C(=O)Nc3ccc(Cl)cc3)cc2S(=O)(=O)NC2=NC(c3ccccc3)c3cc(Cl)ccc3N2)cc1Cl (stereo not given) | > 100 | > 100 | > 100 | > 100 | > 100 | > 100 | > 100 | 58.5 | > 100 | > 100 | – | – | – | – | – | – | – | – | – | –
4 | COc1cc(C(=O)OC2CC(C)=CC[C@@]3(C)CC[C@](O)(C(C)C)C23)ccc1O (stereo not given in full) | 33.1 | 34.3 | 28.9 | 32.5 | 53.1 | 38.7 | 29.1 | 84.1 | 67 | 29.6 | – | – | – | – | – | – | – | – | – | –
5 | COc1ccc(CCN2CCOCC2)cc1 | > 100 | > 100 | > 100 | > 100 | > 100 | > 100 | > 100 | > 100 | > 100 | > 100 | – | – | – | – | – | – | – | – | – | –
6 | CCNC(=O)CCCCC(=O)c1c(C)[nH]c(/C=C2\N=C(c3ccc[nH]3)C=C2OC)c1C | 7.13 | 5.74 | 4.51 | 41.1 | > 100 | 6.52 | 5.76 | 32.8 | 4.5 | 26.1 | 2.68 | 2.32 | 1.84 | 20.3 | 2.79 | 2.41 | 2.59 | 1.65 | 1.99 | 6.41
7 | CC1(C)CC(=O)C2=C(C1)N(c1ccccc1)C1(O)C=CC(=O)C3=C(O)c4ccccc4C(=O)C321 (stereo not given) | > 100 | 66.8 | > 100 | 42.4 | > 100 | 52.1 | > 100 | 56.4 | > 100 | > 100 | – | – | – | – | – | – | – | – | – | –
8 | CCOC(=O)c1ccc2c(=O)n3c(C(=O)OCC)ccc3c(=O)n12 | > 100 | > 100 | > 100 | > 100 | > 100 | > 100 | > 100 | > 100 | > 100 | > 100 | – | – | – | – | – | – | – | – | – | –
9 | CCC(c1nc2ccccc2c(=O)n1NC(=O)C(C)(C)C)C1(O)CCCCC1 (stereo not given) | > 100 | > 100 | > 100 | > 100 | > 100 | > 100 | > 100 | > 100 | > 100 | > 100 | – | – | – | – | – | – | – | – | – | –
10 | COC(=O)C1(Cc2ccc3c(c2)CCC3)Cc2cc3c(cc2C1=O)CCC3 (stereo not given) | > 46.4 | > 46.4 | > 46.4 | > 46.4 | 31.3 | > 46.4 | > 46.4 | 33 | > 46.4 | > 46.4 | – | – | – | – | – | – | – | – | – | –
11 | O=C(O)[C@H]1NC[C@@H]2ON=C(Br)[C@@H]21 | > 100 | > 100 | > 100 | > 100 | > 100 | > 100 | > 100 | > 100 | > 100 | > 100 | – | – | – | – | – | – | – | – | – | –
12 | COc1ccc(-c2cc(-c3ccc(Nc4ccnc5cc(C(F)(F)F)ccc45)cc3)[nH]c(=O)c2C#N)cc1 | > 100 | > 100 | > 100 | > 70.9 | > 100 | > 88.6 | > 47.4 | > 100 | > 70.9 | > 100 | – | – | – | – | – | – | – | – | – | –
13 | O=c1[nH]c2cc([N+](=O)[O-])c(N(CCO)CCO)c([N+](=O)[O-])c2[nH]1 | 89 | > 100 | > 100 | 71.4 | 98.1 | > 100 | 89.7 | > 100 | > 100 | 59.3 | – | – | – | – | – | – | – | – | – | –
14 | CC(=O)O[C@@H]1CC2[C@@H](CCC3Cc4nc5c(nc4C[C@@]32C)CC2CC[C@@H]3C(CC[C@@]4(C)C3CC[C@@H]4C(C)CCCC(C)C)[C@@]2(C)C5)C2C[C@@H]3OC4(CCC(C)CO4)C(C)[C@@H]3[C@]21C (stereo not given in full) | > 100 | > 100 | > 100 | 87.1 | > 100 | > 100 | > 100 | > 100 | > 100 | > 100 | – | – | – | – | – | – | – | – | – | –
15 | COC(=O)C1=C2Nc3ccccc3C23CCN2C(O)C4(CC5CC67CCOC6CCN6CCC8(c9cccc(OC)c9N(C4)C58O)C67)C4OCCC4(C1)C23 (stereo not given) | > 100 | > 100 | > 100 | > 100 | > 100 | > 100 | > 100 | > 100 | > 100 | > 100 | – | – | – | – | – | – | – | – | – | –
16 | O=C(OCc1c(-c2ccccc2)nn(-c2ccccc2)c1COC(=O)Oc1ccccc1)Oc1ccccc1 | > 100 | > 100 | > 100 | > 100 | > 100 | > 100 | > 100 | > 100 | > 100 | > 100 | – | – | – | – | – | – | – | – | – | –
17 | Nc1nc(SCc2ccccc2[N+](=O)[O-])c2[nH]cnc2n1 | > 100 | > 67.4 | > 100 | 97.5 | > 100 | > 84.6 | > 100 | > 100 | > 100 | > 75.9 | – | – | – | – | – | – | – | – | – | –
18 | Cn1c2cc(Cl)ccc2c2ccc3c(c21)C(=O)C=CC3=O | > 64 | 33.4 | 50.6 | > 100 | 23.7 | > 82.6 | > 100 | 26.1 | > 100 | > 77.3 | – | – | – | – | – | – | – | – | – | –
19 | CN1CCN(c2ccc3nc(-c4ccc5nc(-c6ccc(N(C)CCCl)cc6)[nH]c5c4)[nH]c3c2)CC1 | 3.42 | 0.41 | 0.56 | 5.2 | 16.5 | 11 | 1.2 | 12.5 | 1.09 | 3.34 | – | – | – | – | – | – | – | – | – | –
20 | O=C(/C=C/c1ccsc1)c1ccc(Cl)s1 | > 100 | > 100 | > 100 | > 100 | 45.5 | > 100 | > 100 | 54 | > 100 | > 100 | – | – | – | – | – | – | – | – | – | –
21 | COc1cc(C2c3cc4c(cc3OC(N3CCOCC3)C2C)OCO4)cc(OC)c1OC (stereo not given) | 44.1 | > 100 | > 77 | 11.2 | > 23.7 | > 100 | 23.4 | > 100 | > 20.1 | > 59.7 | – | – | – | – | – | – | – | – | – | –
22 | Cc1ccc(C(=O)/C=C/N2CCN(c3cccc(C(F)(F)F)c3)CC2)cc1 | 30.5 | 38.1 | 34 | 38.9 | > 100 | 36.8 | 95.5 | 40.3 | 31.4 | 32.5 | – | – | – | – | – | – | – | – | – | –
